Data reported in patent publication US7087642B2 (priority 1999, dated 2006).

Tested on: human PBMC T cells
Assay: cells
Assay type: cell-based
Conditions: Homo sapiens, 72 h, read-out: T-cells (IC50)

Compound	IC50 [nM]
COc1cc(NC(=O)Nc2cccc(CNC(=O)OC(CCN3CCOCC3)c3ccccc3)c2)ccc1-c1cnco1 (stereo not drawn) [Compound 48]	100 to 1000
CCC(CCCCO)OC(=O)NCc1cccc(NC(=O)Nc2ccc(-c3cnco3)c(OC)c2)c1 (stereo not drawn) [Compound 49]	100 to 1000
COc1cc(NC(=O)Nc2cccc(CNC(=O)OC(CCN3CCCCC3)c3ccccc3)c2)ccc1-c1cnco1 (stereo not drawn) [Compound 50]	> 1000
COc1cc(NC(=O)Nc2cccc(CNC(=O)O[C@H](CN3CCOCC3)c3ccccc3)c2)ccc1-c1cnco1 [Compound 51]	100 to 1000
COc1cc(NC(=O)Nc2cccc(CNC(=O)O[C@@H](CN3CCOCC3)c3ccccc3)c2)ccc1-c1cnco1 [Compound 52]	> 1000
COc1cc(NC(=O)Nc2cccc(CNC(=O)O[C@@H](CO)CCC#N)c2)ccc1-c1cnco1 [Compound 57]	100 to 1000
COc1cc(NC(=O)Nc2cccc(CNC(=O)OCCCOC(C)=O)c2)ccc1-c1cnco1 [Compound 58]	100 to 1000
COc1cc(NC(=O)Nc2cccc(CNC(=O)O[C@H](CO)CCC#N)c2)ccc1-c1cnco1 [Compound 59]	> 1000
CC[C@H](CO)OC(=O)NCc1cccc(NC(=O)Nc2ccc(-c3cnco3)c(OC)c2)c1 [Compound 60]	100 to 1000
CC[C@@H](CO)OC(=O)NCc1cccc(NC(=O)Nc2ccc(-c3cnco3)c(OC)c2)c1 [Compound 61]	100 to 1000
COc1cc(NC(=O)Nc2cccc(CNC(=O)O[C@@H](CO)CC#N)c2)ccc1-c1cnco1 [Compound 62]	100 to 1000
COc1cc(NC(=O)Nc2cccc(CNC(=O)O[C@H](CO)CC#N)c2)ccc1-c1cnco1 [Compound 63]	100 to 1000
CCC(CCN1CCOCC1)OC(=O)NCc1cccc(NC(=O)Nc2ccc(-c3cnco3)c(OC)c2)c1 (stereo not drawn) [Compound 65]	100 to 1000
CCN(CC)C[C@H](OC(=O)NCc1cccc(NC(=O)Nc2ccc(-c3cnco3)c(OC)c2)c1)c1ccccc1 [Compound 66]	> 1000
CCN(CC)C[C@@H](OC(=O)NCc1cccc(NC(=O)Nc2ccc(-c3cnco3)c(OC)c2)c1)c1ccccc1 [Compound 67]	100 to 1000
COc1cc(NC(=O)Nc2cccc(CNC(=O)OC3COCC3OCC(=O)O)c2)ccc1-c1cnco1 (stereo not drawn) [Compound 71]	> 1000
COc1cc(NC(=O)Nc2cccc(CNC(=O)Oc3cccc(/C=C/C(=O)OC(C)(C)C)c3)c2)ccc1-c1cnco1 [Compound 74]	> 1000
COc1cc(NC(=O)Nc2cccc(CNC(=O)OC3COCC3OCC#N)c2)ccc1-c1cnco1 (stereo not drawn) [Compound 75]	100 to 1000
COc1cc(NC(=O)Nc2cccc(CNC(=O)O[C@@H]3CCN(S(=O)(=O)N(C)C)C3)c2)ccc1-c1cnco1 [Compound 77]	100 to 1000
COc1cc(NC(=O)Nc2cccc(CNC(=O)O[C@@H]3C=C[C@H](OC(C)=O)C3)c2)ccc1-c1cnco1 [Compound 78]	100 to 1000
COc1cc(NC(=O)Nc2cccc(CNC(=O)OC(CC#N)C(F)(F)F)c2)ccc1-c1cnco1 (stereo not drawn) [Compound 79]	100 to 1000
CCN(CC)CC(CO)OC(=O)NCc1cccc(NC(=O)Nc2ccc(-c3cnco3)c(OC)c2)c1 (stereo not drawn) [Compound 80]	100 to 1000
CC[C@H](CC#N)OC(=O)NCc1cccc(NC(=O)Nc2ccc(-c3cnco3)c(OC)c2)c1 [Compound 81]	100 to 1000
CC[C@@H](CC#N)OC(=O)NCc1cccc(NC(=O)Nc2ccc(-c3cnco3)c(OC)c2)c1 [Compound 82]	100 to 1000
CC[C@H](CCC#N)OC(=O)NCc1cccc(NC(=O)Nc2ccc(-c3cnco3)c(OC)c2)c1 [Compound 83]	100 to 1000
CCC(CN1CC[S+]([O-])CC1)OC(=O)NCc1cccc(NC(=O)Nc2ccc(-c3cnco3)c(OC)c2)c1 (stereo not drawn) [Compound 84]	100 to 1000

Tested on: human PBMC B cells
Assay: cells
Assay type: cell-based
Conditions: Homo sapiens, 72 h, read-out: B-cells (IC50)

Compound	IC50 [nM]
COc1cc(NC(=O)Nc2cccc(CNC(=O)OC(CCN3CCOCC3)c3ccccc3)c2)ccc1-c1cnco1 (stereo not drawn) [Compound 48]	100 to 1000
CCC(CCCCO)OC(=O)NCc1cccc(NC(=O)Nc2ccc(-c3cnco3)c(OC)c2)c1 (stereo not drawn) [Compound 49]	100 to 1000
COc1cc(NC(=O)Nc2cccc(CNC(=O)OC(CCN3CCCCC3)c3ccccc3)c2)ccc1-c1cnco1 (stereo not drawn) [Compound 50]	> 1000
COc1cc(NC(=O)Nc2cccc(CNC(=O)O[C@H](CN3CCOCC3)c3ccccc3)c2)ccc1-c1cnco1 [Compound 51]	100 to 1000
COc1cc(NC(=O)Nc2cccc(CNC(=O)O[C@@H](CN3CCOCC3)c3ccccc3)c2)ccc1-c1cnco1 [Compound 52]	> 1000
COc1cc(NC(=O)Nc2cccc(CNC(=O)O[C@@H](CO)CCC#N)c2)ccc1-c1cnco1 [Compound 57]	100 to 1000
COc1cc(NC(=O)Nc2cccc(CNC(=O)OCCCOC(C)=O)c2)ccc1-c1cnco1 [Compound 58]	100 to 1000
COc1cc(NC(=O)Nc2cccc(CNC(=O)O[C@H](CO)CCC#N)c2)ccc1-c1cnco1 [Compound 59]	100 to 1000
CC[C@H](CO)OC(=O)NCc1cccc(NC(=O)Nc2ccc(-c3cnco3)c(OC)c2)c1 [Compound 60]	100 to 1000
CC[C@@H](CO)OC(=O)NCc1cccc(NC(=O)Nc2ccc(-c3cnco3)c(OC)c2)c1 [Compound 61]	100 to 1000
COc1cc(NC(=O)Nc2cccc(CNC(=O)O[C@@H](CO)CC#N)c2)ccc1-c1cnco1 [Compound 62]	100 to 1000
COc1cc(NC(=O)Nc2cccc(CNC(=O)O[C@H](CO)CC#N)c2)ccc1-c1cnco1 [Compound 63]	100 to 1000
CCC(CCN1CCOCC1)OC(=O)NCc1cccc(NC(=O)Nc2ccc(-c3cnco3)c(OC)c2)c1 (stereo not drawn) [Compound 65]	100 to 1000
CCN(CC)C[C@H](OC(=O)NCc1cccc(NC(=O)Nc2ccc(-c3cnco3)c(OC)c2)c1)c1ccccc1 [Compound 66]	> 1000
CCN(CC)C[C@@H](OC(=O)NCc1cccc(NC(=O)Nc2ccc(-c3cnco3)c(OC)c2)c1)c1ccccc1 [Compound 67]	100 to 1000
COc1cc(NC(=O)Nc2cccc(CNC(=O)OC3COCC3OCC(=O)O)c2)ccc1-c1cnco1 (stereo not drawn) [Compound 71]	> 1000
COc1cc(NC(=O)Nc2cccc(CNC(=O)Oc3cccc(/C=C/C(=O)OC(C)(C)C)c3)c2)ccc1-c1cnco1 [Compound 74]	> 1000
COc1cc(NC(=O)Nc2cccc(CNC(=O)OC3COCC3OCC#N)c2)ccc1-c1cnco1 (stereo not drawn) [Compound 75]	100 to 1000
COc1cc(NC(=O)Nc2cccc(CNC(=O)O[C@@H]3CCN(S(=O)(=O)N(C)C)C3)c2)ccc1-c1cnco1 [Compound 77]	100 to 1000
COc1cc(NC(=O)Nc2cccc(CNC(=O)O[C@@H]3C=C[C@H](OC(C)=O)C3)c2)ccc1-c1cnco1 [Compound 78]	100 to 1000
COc1cc(NC(=O)Nc2cccc(CNC(=O)OC(CC#N)C(F)(F)F)c2)ccc1-c1cnco1 (stereo not drawn) [Compound 79]	100 to 1000
CCN(CC)CC(CO)OC(=O)NCc1cccc(NC(=O)Nc2ccc(-c3cnco3)c(OC)c2)c1 (stereo not drawn) [Compound 80]	100 to 1000
CC[C@H](CC#N)OC(=O)NCc1cccc(NC(=O)Nc2ccc(-c3cnco3)c(OC)c2)c1 [Compound 81]	100 to 1000
CC[C@@H](CC#N)OC(=O)NCc1cccc(NC(=O)Nc2ccc(-c3cnco3)c(OC)c2)c1 [Compound 82]	100 to 1000
CC[C@H](CCC#N)OC(=O)NCc1cccc(NC(=O)Nc2ccc(-c3cnco3)c(OC)c2)c1 [Compound 83]	100 to 1000
CCC(CN1CC[S+]([O-])CC1)OC(=O)NCc1cccc(NC(=O)Nc2ccc(-c3cnco3)c(OC)c2)c1 (stereo not drawn) [Compound 84]	100 to 1000

Biological target: IMPDH human type II (Homo sapiens, UniProt P12268)
Assay: biochemical
Conditions: not given

Compound	Ki [nM]
COc1cc(NC(=O)Nc2cccc(CNC(=O)Oc3cccc(/C=C/C(=O)OC(C)(C)C)c3)c2)ccc1-c1cnco1 [Compound 74]	< 10

Same assay, conditions: read-out: Ki

Compound	Ki [nM]
COc1cc(NC(=O)Nc2cccc(CNC(=O)OC(CCN3CCOCC3)c3ccccc3)c2)ccc1-c1cnco1 (stereo not drawn) [Compound 48]	< 10
CCC(CCCCO)OC(=O)NCc1cccc(NC(=O)Nc2ccc(-c3cnco3)c(OC)c2)c1 (stereo not drawn) [Compound 49]	< 10
COc1cc(NC(=O)Nc2cccc(CNC(=O)OC(CCN3CCCCC3)c3ccccc3)c2)ccc1-c1cnco1 (stereo not drawn) [Compound 50]	< 10
COc1cc(NC(=O)Nc2cccc(CNC(=O)O[C@H](CN3CCOCC3)c3ccccc3)c2)ccc1-c1cnco1 [Compound 51]	< 10
COc1cc(NC(=O)Nc2cccc(CNC(=O)O[C@@H](CN3CCOCC3)c3ccccc3)c2)ccc1-c1cnco1 [Compound 52]	< 10
COc1cc(NC(=O)Nc2cccc(CNC(=O)O[C@@H](CO)CCC#N)c2)ccc1-c1cnco1 [Compound 57]	< 10
COc1cc(NC(=O)Nc2cccc(CNC(=O)OCCCOC(C)=O)c2)ccc1-c1cnco1 [Compound 58]	< 10
COc1cc(NC(=O)Nc2cccc(CNC(=O)O[C@H](CO)CCC#N)c2)ccc1-c1cnco1 [Compound 59]	< 10
CC[C@H](CO)OC(=O)NCc1cccc(NC(=O)Nc2ccc(-c3cnco3)c(OC)c2)c1 [Compound 60]	< 10
CC[C@@H](CO)OC(=O)NCc1cccc(NC(=O)Nc2ccc(-c3cnco3)c(OC)c2)c1 [Compound 61]	< 10
COc1cc(NC(=O)Nc2cccc(CNC(=O)O[C@@H](CO)CC#N)c2)ccc1-c1cnco1 [Compound 62]	< 10
COc1cc(NC(=O)Nc2cccc(CNC(=O)O[C@H](CO)CC#N)c2)ccc1-c1cnco1 [Compound 63]	< 10
CCC(CCN1CCOCC1)OC(=O)NCc1cccc(NC(=O)Nc2ccc(-c3cnco3)c(OC)c2)c1 (stereo not drawn) [Compound 65]	< 10
CCN(CC)C[C@H](OC(=O)NCc1cccc(NC(=O)Nc2ccc(-c3cnco3)c(OC)c2)c1)c1ccccc1 [Compound 66]	< 10
CCN(CC)C[C@@H](OC(=O)NCc1cccc(NC(=O)Nc2ccc(-c3cnco3)c(OC)c2)c1)c1ccccc1 [Compound 67]	< 10
COc1cc(NC(=O)Nc2cccc(CNC(=O)OC3COCC3OCC(=O)O)c2)ccc1-c1cnco1 (stereo not drawn) [Compound 71]	< 10
COc1cc(NC(=O)Nc2cccc(CNC(=O)OC3COCC3OCC#N)c2)ccc1-c1cnco1 (stereo not drawn) [Compound 75]	< 10
COc1cc(NC(=O)Nc2cccc(CNC(=O)O[C@@H]3CCN(S(=O)(=O)N(C)C)C3)c2)ccc1-c1cnco1 [Compound 77]	< 10
COc1cc(NC(=O)Nc2cccc(CNC(=O)O[C@@H]3C=C[C@H](OC(C)=O)C3)c2)ccc1-c1cnco1 [Compound 78]	< 10
COc1cc(NC(=O)Nc2cccc(CNC(=O)OC(CC#N)C(F)(F)F)c2)ccc1-c1cnco1 (stereo not drawn) [Compound 79]	< 10
CCN(CC)CC(CO)OC(=O)NCc1cccc(NC(=O)Nc2ccc(-c3cnco3)c(OC)c2)c1 (stereo not drawn) [Compound 80]	< 10
CC[C@H](CC#N)OC(=O)NCc1cccc(NC(=O)Nc2ccc(-c3cnco3)c(OC)c2)c1 [Compound 81]	10 to 50
CC[C@@H](CC#N)OC(=O)NCc1cccc(NC(=O)Nc2ccc(-c3cnco3)c(OC)c2)c1 [Compound 82]	> 50
CC[C@H](CCC#N)OC(=O)NCc1cccc(NC(=O)Nc2ccc(-c3cnco3)c(OC)c2)c1 [Compound 83]	10 to 50
CCC(CN1CC[S+]([O-])CC1)OC(=O)NCc1cccc(NC(=O)Nc2ccc(-c3cnco3)c(OC)c2)c1 (stereo not drawn) [Compound 84]	10 to 50
